The values that follow come from patent US8822464B2, “N-aryl-piperazine derivatives and their use as positive allosteric modulators of mGluR5 receptors” (Boehringer Ingelheim International GmbH, priority 2011, dated 2014).

The target of this test is T1, human recombinant mGluR5 (Homo sapiens, UniProt P41594).
T1 construct: expressed in transfected cells; host or cells: HEK 293 cell line; cultured with tetracycline, hygromycin and geneticin; tetracycline withdrawn 3-7 days before the assay
T1 sequence (P41594 21-1212): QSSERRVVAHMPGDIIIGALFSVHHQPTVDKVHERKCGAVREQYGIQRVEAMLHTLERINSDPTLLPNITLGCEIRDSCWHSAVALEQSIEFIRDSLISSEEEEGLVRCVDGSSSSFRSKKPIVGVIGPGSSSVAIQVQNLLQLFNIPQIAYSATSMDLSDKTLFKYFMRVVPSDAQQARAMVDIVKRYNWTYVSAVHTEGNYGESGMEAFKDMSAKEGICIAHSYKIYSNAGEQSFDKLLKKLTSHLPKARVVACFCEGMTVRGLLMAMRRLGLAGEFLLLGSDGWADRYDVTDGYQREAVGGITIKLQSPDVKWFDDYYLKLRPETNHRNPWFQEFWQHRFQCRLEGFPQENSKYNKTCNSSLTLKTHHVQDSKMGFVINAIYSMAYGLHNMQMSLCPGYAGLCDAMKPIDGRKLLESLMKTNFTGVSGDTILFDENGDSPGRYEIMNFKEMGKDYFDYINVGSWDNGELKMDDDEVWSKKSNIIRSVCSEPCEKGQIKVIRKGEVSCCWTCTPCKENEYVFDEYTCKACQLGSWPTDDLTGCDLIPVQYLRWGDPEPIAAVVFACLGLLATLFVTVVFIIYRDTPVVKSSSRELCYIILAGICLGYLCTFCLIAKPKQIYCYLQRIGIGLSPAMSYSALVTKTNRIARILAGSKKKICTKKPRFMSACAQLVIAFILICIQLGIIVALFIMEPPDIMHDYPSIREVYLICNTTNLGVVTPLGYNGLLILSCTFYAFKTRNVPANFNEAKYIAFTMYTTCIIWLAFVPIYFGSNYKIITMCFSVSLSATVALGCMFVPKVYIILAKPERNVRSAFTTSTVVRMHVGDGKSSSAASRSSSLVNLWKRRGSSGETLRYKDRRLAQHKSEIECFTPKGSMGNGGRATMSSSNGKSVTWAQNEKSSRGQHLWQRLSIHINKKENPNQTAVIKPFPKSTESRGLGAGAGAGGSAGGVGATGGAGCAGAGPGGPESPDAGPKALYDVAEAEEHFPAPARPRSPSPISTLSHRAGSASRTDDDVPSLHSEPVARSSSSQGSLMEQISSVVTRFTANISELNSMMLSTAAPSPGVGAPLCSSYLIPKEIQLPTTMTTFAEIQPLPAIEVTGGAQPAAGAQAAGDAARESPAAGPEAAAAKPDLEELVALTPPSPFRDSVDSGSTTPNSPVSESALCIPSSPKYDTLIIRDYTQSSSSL
As to the kind of experiment: positive modulation of mGluR5, calcium based FLIPR assay in HEK 293 cells. To be noted: HEK 293 cell line expressing human recombinant mGluR5; peak height of Ca release fluorescence signal after glutamate at approximately 5% basal stimulation; nonlinear regression. How it is done: The positive modulation of mGluR5 is measured in a HEK 293 cell line expressing human recombinant mGluR5 and is detected with calcium based FLIPR assay. The cells are cultured with DMEM supplemented with 10% FCS, 2 μg/mL tetracycline, 100 μg/mL hygromycin and 500 μg/mL gneticin. The cell culture media is exchanged for tetracycline-free cell culture media 3-7 days before the assay. One day before the assay the cell culture medium is exchanged to DMEM without glutamine and phenol red and supplemented with 10% FCS, 100 μg/mL hygromycin and 500 μg/mL geneticin. On the assay day, the medium of the subconfluent cultures is removed and the cells are detached by addition of 2.5 ml EDTA(0.02%) per 175 cm2 culture flask for 1 minute. The cells are resuspend in Ringer solution (140 mM NaCl, 5 mM KCl, 2.5 mM CaCl2, 1.5 mM MgCl2, 5 mM Glucose, 10 mM Hepes; adjusted to pH 7.4 with NaOH), pooled and Ringer solution added to adjust the volume to 50 mL. The cell suspension is centrifuged for 5 min at 1500 U/min (425 g). The supernatant is removed and the cells washed a second time with 50 ml fresh Ringer solution and centrifuged again as before. The supernatant is again removed and the pellet resuspended in Ringer solution to 1,000,000 cells/ml (1×10^6 cells/mL). The cells are plated onto BD BioCoat Poly-D-Lysine 384 well plates (20.000 cells/well; 20 μl/well). The lid covered plates are then incubated until use at 37° C./10% CO2. For dye loading, 20 μl of Calcium-4 assay kit solution (prepared according to the manufacturer's description in Ringer solution) are added to the cells and the plates are incubated for 80 min 37° C. and then 10 min at room temperature.
Controls, Compound Dilution and Assay Execution:
Each assay plate contained wells with “high” and “low” controls:
Low controls 1% DMSO/ringer solution+basal glutamate activation (defined as 100% CTL).
High controls 10 μM CDPPB+basal glutamate activation (defined as 200% CTL).
Test compounds are dissolved and diluted in DMSO to 100-fold the desired concentrations. In a second step, the compounds are diluted in Ringer solution such that the compounds are 4-fold more concentrated than the desired final assay concentration. The final DMSO concentration was 1%.
20 μl of each compound solution are then transferred to the assay plate and the Ca2+ kinetic is measured to determine any intrinsic compound activity. After 5 min incubation in the FLIPR device, the second stimulation with 20 μl of glutamate in Ringer solution (glutamate concentration adjusted to approximately 5% basal stimulation of the maximal possible glutamate effect) is added and the kinetic Ca2+ response of the wells was measured for the modulation effect.
The peak height of the Ca release related fluorescence signal (9-66) is used for the EC50. The EC50 of the modulation is calculated over a nonlinear regression with GraphPad Prism (Table 1).
Broadly, the EC50 is the concentration that produces a half-maximal response. Consider `COc1ccnc(N2CCN(C(=O)Cn3nc(-c4ccc(F)cc4)cc3C(C)C)CC2)c1` [Example 7.01.85], for which the EC50 came to 371 nM. Then `O=C(Cn1nc(-c2ccc(F)cn2)cc1-c1ccccc1)N1CCN(c2cccnn2)CC1` [Example 7.01.60], with 1230 nM. Turning to `CCc1cc(-c2cc(C)c(F)c(C)c2)nn1CC(=O)N1CCN(c2ncc(F)cn2)CC1` [Example 7.01.142], the EC50 amounted to 704 nM. Turning to `O=C(Cn1nc(-c2ccc(F)cn2)cc1-c1ccc(F)cc1)N1CCN(c2ncccn2)CC1` [Example 7.01.62], the EC50 came to 48 nM. As to `CCc1cc(-c2ccc(F)cc2)nn1CC(=O)N1CCN(c2cc(OC)ccn2)CC1` [Example 7.01.75], the EC50 came out at 421 nM. Then `COc1ccnc(N2CCN(C(=O)Cn3nc(-c4ccc(C)cn4)cc3-c3ccccc3)CC2)c1` [Example 7.01.119], with 19 nM; and `CCc1cccc(-c2cc(CC)n(CC(=O)N3CCN(c4cc(OC)ncn4)CC3)n2)c1` [Example 7.01.129], with 212 nM. As to `Cc1cccc(-c2cc(-c3ccccc3)n(CC(=O)N3CCN(c4ccccn4)CC3)n2)c1` [Example 7.01.166], the EC50 amounted to 8 nM.

`N#Cc1cccc(-c2cc(-c3ccccc3)nn2CC(=O)N2CCN(c3ncccn3)CC2)c1` [Example 7.01.172]: the EC50 is 152 nM.

In the case of `CCc1cc(-c2ccc(C)c(C)c2)nn1CC(=O)N1CCN(c2cc(OC)ncn2)CC1` [Example 7.01.93], the EC50 was 170 nM. Turning to `O=C(Cn1nc(-c2ccccc2)cc1-c1ccccc1)N1CCN(c2ncc(Br)cn2)CC1` [Example 7.02.11], the EC50 amounted to 91 nM. With `CCc1cc(-c2ccc(C)c(C)c2)nn1CC(=O)N1CCN(c2ncccn2)CC1` [Example 7.01.87], the EC50 amounted to 69 nM. `COc1cc(N2CCN(C(=O)Cn3nc(-c4ccc(OC(F)F)cn4)cc3-c3ccccc3)CC2)ncn1` [Example 7.01.180]: the EC50 came out at 64 nM.

With `COc1ccnc(N2CCN(C(=O)Cn3nc(-c4ccc(F)c(C)c4)cc3C3CCCCC3)CC2)c1` [Example 7.01.37], the concentration giving a half-maximal response (EC50) turned out to be 298 nM. Then `Cc1cc(-c2cc(C(C)C)n(CC(=O)N3CCN(c4cccnn4)CC3)n2)ccc1F` [Example 7.01.29], with 158 nM; and `CCCc1cc(-c2ccc(F)c(C)c2)nn1CC(=O)N1CCN(c2cc(OC)ccn2)CC1` [Example 7.01.80], with 45 nM; and `CCc1cc(-c2cc(C)c(F)c(C)c2)nn1CC(=O)N1CCN(c2ncccn2)CC1` [Example 7.01.138], with 230 nM.

For `Cc1cc(-c2cc(-c3ccccc3)nn2CC(=O)N2CCN(c3ncccn3)CC2)ccc1F` [Example 7.01.05], the EC50 was determined as 44 nM. Turning to `COc1ccc(-c2cc(C(C)C)n(CC(=O)N3CCN(c4cc(OC)ncn4)CC3)n2)cc1` [Example 7.01.23], the EC50 was 221 nM.

With `O=C(Cn1nc(-c2ccccc2F)cc1-c1ccccc1F)N1CCN(c2ncccn2)CC1` [Example 7.04.01], the EC50 stood at 696 nM.

In the case of `COc1cc(N2CCN(C(=O)Cn3nc(-c4ccc(F)c(C)c4)cc3C(C)C)CC2)ncn1` [Example 7.01.27], the EC50 came to 64 nM. On to `CCCc1cc(-c2ccc(F)c(C)n2)nn1CC(=O)N1CCN(c2ccccn2)CC1` [Example 7.01.186], for which the EC50 was determined as 441 nM.

Turning to `COc1cccc(-c2cc(C3CCCCC3)n(CC(=O)N3CCN(c4ccccn4)CC3)n2)c1` [Example 7.01.18], the EC50 stood at 285 nM. As for `COc1cc(N2CCN(C(=O)Cn3nc(-c4ccc(C)cn4)cc3-c3ccccc3)CC2)ncn1` [Example 7.01.120], the EC50 was determined as 20 nM.

As to `COCc1cc(-c2ccc(F)c(C)c2)nn1CC(=O)N1CCN(c2ncnc3[nH]cnc23)CC1` [Example 7.02.20], the EC50 turned out to be 183 nM.

On to `COc1cnc(N2CCN(C(=O)Cn3nc(-c4ccc(F)c(C)c4)cc3C)CC2)nc1` [Example 7.02.26], for which the half-maximal effective concentration (EC50) amounted to 36 nM.

As to `CCCc1cc(-c2ccc(F)c(C)c2)nn1CC(=O)N1CCN(c2cccnn2)CC1` [Example 7.01.84], the EC50 was determined as 67 nM.

Turning to `COc1cnc(N2CCN(C(=O)Cn3nc(-c4cccc(C)c4)cc3-c3ccccc3)CC2)nc1` [Example 7.01.171], the EC50 was found to be 9 nM. In the case of `CCc1cc(-c2ccc(F)c(C)c2)nn1CC(=O)N1CCN(c2ncccn2)CC1` [Example 7.01.70], the EC50 is 41 nM. Then `COC(=O)c1ccc(-c2cc(-c3ccccc3)n(CC(=O)N3CCN(c4ncccn4)CC3)n2)cc1` [Example 7.04.03], with 392 nM.

As to `N#Cc1cccnc1N1CCN(C(=O)Cn2nc(-c3ccccc3)cc2-c2ccccc2)CC1` [Example 7.02.09], the EC50 was 298 nM.

On to `COc1cc(N2CCN(C(=O)Cn3nc(-c4ccc(C(F)F)cc4)cc3-c3ccccc3)CC2)ncn1` [Example 7.01.192], for which the EC50 came out at 15 nM. For the molecule `COc1cc(-c2cc(C(C)C)n(CC(=O)N3CCN(c4cc(C)ccn4)CC3)n2)ccc1F` [Example 7.01.48], the EC50 was found to be 687 nM.

Turning to `COCCCc1cc(-c2ccc(F)c(C)c2)nn1CC(=O)N1CCN(c2cc(OC)ccn2)CC1` [Example 7.01.109], the concentration for a half-maximal effect (EC50) was found to be 140 nM. With `O=C(Cn1nc(-c2ccc(F)cn2)cc1-c1ccc(F)cc1)N1CCN(c2cccnn2)CC1` [Example 7.01.64], the EC50 came out at 677 nM. As for `COc1cc(-c2cc(-c3ccccc3)nn2CC(=O)N2CCN(c3ncccn3)CC2)ccc1F` [Example 7.01.153], the EC50 stood at 276 nM. Then `O=C(Cn1nc(-c2ccc(F)cc2)cc1-c1ccc(F)cn1)N1CCN(c2ncccn2)CC1` [Example 7.01.65], with 253 nM; and `COCCCc1cc(-c2ccc(F)c(C)c2)nn1CC(=O)N1CCN(c2ncc(OC)cn2)CC1` [Example 7.01.112], with 120 nM; and `CCc1cc(-c2ccc(F)cc2)nn1CC(=O)N1CCN(c2ccccn2)CC1` [Example 7.01.73], with 419 nM. Turning to `Cc1cc(-c2cc(-c3ccccc3)n(CC(=O)N3CCN(c4ncccn4)CC3)n2)ncc1F` [Example 7.01.157], the EC50 was 35 nM.

With `O=C(Cn1nc(-c2ccc(F)cn2)cc1-c1ccccc1)N1CCN(c2ccccn2)CC1` [Example 7.01.58], the 50% effective concentration (EC50) is 211 nM. Turning to `CCc1cc(-c2cc(C)c(F)c(C)c2)nn1CC(=O)N1CCN(c2ccccn2)CC1` [Example 7.01.139], the EC50 came out at 595 nM. Take `CCc1cc(-c2ccc(F)cc2)nn1CC(=O)N1CCN(c2cc(OC)ncn2)CC1` [Example 7.01.77]: the EC50 amounted to 697 nM. With `COc1cc(N2CCN(C(=O)Cn3nc(-c4ccc(F)c(C)c4)cc3C3CCCCC3)CC2)ncn1` [Example 7.01.36], the EC50 stood at 308 nM. On to `COCCCc1cc(-c2ccc(F)c(C)c2)nn1CC(=O)N1CCN(c2ccccn2)CC1` [Example 7.01.108], for which the EC50 was 1260 nM. Then `COc1ccnc(N2CCN(C(=O)Cn3nc(-c4ccc(OC)c(C)c4)cc3C(C)C)CC2)c1` [Example 7.01.55], with 501 nM; and `Cc1cc(-c2cc(-c3ccccc3)nn2CC(=O)N2CCN(c3ccccn3)CC2)ccc1F` [Example 7.01.06], with 99 nM; and `O=C(Cn1nc(-c2ccccc2)cc1-c1ccccc1)N1CCN(c2cc3ccccc3cn2)CC1` [Example 7.02.07], with 853 nM. Turning to `O=C(Cn1nc(-c2ccccc2)cc1-c1cc(Cl)cs1)N1CCN(c2ncccn2)CC1` [Example 7.01.143], the EC50 turned out to be 20 nM. Regarding `CCc1cc(-c2ccc(F)c(C)c2)nn1CC(=O)N1CCN(c2cccc(OC)c2)CC1` [Example 7.01.145], the EC50 is 216 nM.

For `COCc1cc(-c2ccc(F)c(C)c2)nn1CC(=O)N1CCN(c2cc(OC)ncn2)CC1` [Example 7.02.18], the EC50 was 211 nM. As for `CCc1cc(-c2cccc(Cl)c2)nn1CC(=O)N1CCN(c2cc(OC)ncn2)CC1` [Example 7.01.116], the EC50 was determined as 89 nM. `O=C(Cn1nc(-c2ccc(OC(F)F)cc2)cc1-c1ccccc1)N1CCN(c2ncccn2)CC1` [Example 7.01.174]: the EC50 came to 3 nM.

`COCCCc1cc(-c2ccc(F)c(C)c2)nn1CC(=O)N1CCN(c2ncccn2)CC1` [Example 7.01.107]: the EC50 came out at 64 nM.

Regarding `COc1cnc(N2CCN(C(=O)Cn3nc(-c4cccc(C#N)c4)cc3-c3ccccc3)CC2)nc1` [Example 7.01.169], the EC50 worked out at 11 nM.
